In PubChem BioAssay (NCI):
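In this assay, cells in 96-well plates receive the compound at five concentrations for 48 hours. Endpoints are linearly interpolated between the surrounding concentrations. The concentration for full growth arrest is given as TGI.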

Experiments:
Assay in all cases: NCI-60 cell line screen, 48 h
[1] = tested on: 786-0 renal
[2] = tested on: A498 renal
[3] = tested on: A549 NSCLC
[4] = tested on: ACHN renal
[5] = tested on: CCRF-CEM leukemia
[6] = tested on: COLO 205 colon
[7] = tested on: DLD-1 colon
[8] = tested on: DMS 114 small cell lung
[9] = tested on: DMS 273 small cell lung
[10] = tested on: EKVX NSCLC
[11] = tested on: HCT-116 colon
[12] = tested on: HCT-15 colon
[13] = tested on: HL-60(TB) leukemia
[14] = tested on: HOP-18 NSCLC
[15] = tested on: HOP-62 NSCLC
[16] = tested on: HOP-92 NSCLC
[17] = tested on: HT29 colon
[18] = tested on: IGROV1 ovarian
[19] = tested on: K-562 leukemia
[20] = tested on: KM12 colon
[21] = tested on: KM20L2 colon
[22] = tested on: LOX IMVI melanoma
[23] = tested on: LXFL 529 NSCLC
[24] = tested on: M14 melanoma
[25] = tested on: M19-MEL melanoma
[26] = tested on: MOLT-4 leukemia
[27] = tested on: NCI-H226 lung
[28] = tested on: NCI-H23 lung
[29] = tested on: NCI-H460 lung
[30] = tested on: NCI-H522 lung
[31] = tested on: OVCAR-4 ovarian
[32] = tested on: OVCAR-5 ovarian
[33] = tested on: OVCAR-8 ovarian
[34] = tested on: RPMI-8226 leukemia
[35] = tested on: RXF 393 renal
[36] = tested on: SF-268 CNS
[37] = tested on: SF-295 CNS
[38] = tested on: SF-539 CNS
[39] = tested on: SK-MEL-28 melanoma
[40] = tested on: SK-MEL-5 melanoma
[41] = tested on: SN12C renal
[42] = tested on: SNB-19 CNS
[43] = tested on: SNB-75 CNS
[44] = tested on: SR leukemia
[45] = tested on: SW-620 colon
[46] = tested on: U251 CNS
[47] = tested on: UACC-257 melanoma
[48] = tested on: UACC-62 melanoma
[49] = tested on: CAKI-1 renal
[50] = tested on: HCC-2998 colon
[51] = tested on: MALME-3M melanoma
[52] = tested on: OVCAR-3 ovarian
[53] = tested on: SK-MEL-2 melanoma
[54] = tested on: SK-OV-3 ovarian
[55] = tested on: SNB-78 CNS
[56] = tested on: TK-10 renal
[57] = tested on: UO-31 renal
[58] = tested on: XF 498 CNS

Measured: TGI

CCOC12SC(=Nc3ccc(C)cc3)NN1C(=S)N(C)N=C2C (centres undefined)
> 100 µM: [1] | [2] | [3] | [4] | [5] | [6] | [7] | [8] | [9] | [10] | [11] | [12] | [13] | [14] | [15] | [16] | [17] | [18] | [19] | [20] | [21] | [22] | [23] | [24] | [25] | [26] | [27] | [28] | [29] | [30] | [31] | [32] | [33] | [34] | [35] | [36] | [37] | [38] | [39] | [40] | [41] | [42] | [43] | [44] | [45] | [46] | [47] | [48]

CNC(=O)OCc1[nH]ccc2c(C)c3nc4ccc(OC)cc4c3cc12
19 µM: [13]
> 53.9 µM: [57]
8.72 µM: [35]
12.8 µM: [40]
> 22.5 µM: [19]
3.89 µM: [26]
66.1 µM: [31]
> 33.8 µM: [58]
> 21.9 µM: [12]
> 27.5 µM: [21]
> 53.5 µM: [50]
> 100 µM: [3] | [49] | [7] | [9] | [10] | [11] | [16] | [17] | [18] | [23] | [24] | [25] | [32] | [36] | [37] | [54] | [41] | [43] | [55] | [47]
> 23.9 µM: [20]
> 79.1 µM: [56]
30.7 µM: [2]
> 24.9 µM: [33]
18.7 µM: [27]
> 67.8 µM: [52]
> 25.1 µM: [42]
1.98 µM: [44]
> 81 µM: [39]
20.5 µM: [1]
> 48 µM: [53]
> 56.7 µM: [48]
34.1 µM: [14]
18 µM: [4]
> 26.9 µM: [45]
> 31.8 µM: [38]
56 µM: [15]
> 20.7 µM: [30]
> 22.2 µM: [28]
> 28.1 µM: [6]
> 77.8 µM: [51]
> 59.5 µM: [46]
13.6 µM: [5]
10.6 µM: [34]

c1ccc(Nc2nnc(-c3nsc4ccccc34)o2)cc1
78.4 µM: [43]
> 100 µM: [3] | [4] | [5] | [6] | [8] | [9] | [10] | [50] | [11] | [12] | [13] | [14] | [15] | [16] | [17] | [18] | [19] | [20] | [21] | [22] | [23] | [24] | [25] | [26] | [28] | [29] | [31] | [32] | [33] | [34] | [35] | [36] | [38] | [53] | [39] | [40] | [41] | [42] | [55] | [44] | [45] | [56] | [46] | [47] | [48] | [57]
45.2 µM: [52]

C[Si]12OCCCN(CCO1)CCO2
> 100 µM: [1] | [2] | [3] | [4] | [49] | [5] | [6] | [7] | [8] | [9] | [10] | [50] | [11] | [16] | [17] | [18] | [19] | [20] | [23] | [25] | [51] | [26] | [28] | [29] | [30] | [52] | [32] | [33] | [34] | [35] | [36] | [37] | [38] | [53] | [39] | [40] | [54] | [41] | [42] | [43] | [55] | [44] | [45] | [56] | [46] | [47] | [48] | [57]
